Results taken from US7371766B2, “Curcumin analogs with anti-tumor and anti-angiogenic properties” (Emory University, priority 1999, dated 2008).

Legend:
[1] = system: UO-31; conditions: read-out: Median Growth Inhibitory Concentration (GI50); UO-31, Renal Cancer; 48 hours
[2] = system: TK-10; conditions: read-out: Median Growth Inhibitory Concentration (GI50); TK-10, Renal Cancer; 48 hours
[3] = system: SNB-75; conditions: read-out: Median Growth Inhibitory Concentration (GI50); SNB-75, CNS Cancer; 48 hours
[4] = system: OVCAR-3; conditions: read-out: Median Growth Inhibitory Concentration (GI50); OVCAR-3, Ovarian Cancer; 48 hours
[5] = system: NCI-H23; conditions: read-out: Median Growth Inhibitory Concentration (GI50); NCI-H23, Non-Small Cell Lung Cancer; 48 hours
[6] = system: SNB-19; conditions: read-out: Median Growth Inhibitory Concentration (GI50); SNB-19, CNS Cancer; 48 hours
[7] = system: MDA-N; conditions: read-out: Median Growth Inhibitory Concentration (GI50), Breast Cancer, 48 hours
[8] = system: U251; conditions: read-out: Median Growth Inhibitory Concentration (GI50); U251, CNS Cancer; 48 hours
[9] = system: SK-OV-3; conditions: read-out: Median Growth Inhibitory Concentration (GI50); SK-OV-3, Ovarian Cancer; 48 hours
[10] = system: ACHN; conditions: read-out: Median Growth Inhibitory Concentration (GI50), Renal Cancer, 48 hours
[11] = system: UACC-62; conditions: read-out: Median Growth Inhibitory Concentration (GI50); UACC-62, Melanoma; 48 hours
[12] = system: K-562; conditions: read-out: Median Growth Inhibitory Concentration (GI50); K-562, Leukemia; 48 hours
[13] = system: HCT-15; conditions: read-out: Median Growth Inhibitory Concentration (GI50); HCT-15, Colon Cancer; 48 hours
[14] = system: 786-0; conditions: read-out: Median Growth Inhibitory Concentration (GI50); 786-0, Renal Cancer; 48 hours
[15] = system: SF-268; conditions: read-out: Median Growth Inhibitory Concentration (GI50); SF-268, CNS Cancer; 48 hours
[16] = system: HOP-92; conditions: read-out: Median Growth Inhibitory Concentration (GI50); HOP-92, Non-Small Cell Lung Cancer; 48 hours
[17] = system: MDA-MB-231; conditions: read-out: Median Growth Inhibitory Concentration (GI50); MDA-MB-231, Breast Cancer; 48 hours
[18] = system: SR; conditions: read-out: Median Growth Inhibitory Concentration (GI50), Leukemia, 48 hours
[19] = system: OVCAR-5; conditions: read-out: Median Growth Inhibitory Concentration (GI50); OVCAR-5, Ovarian Cancer; 48 hours
[20] = system: KM12; conditions: read-out: Median Growth Inhibitory Concentration (GI50); KM12, Colon Cancer; 48 hours
[21] = system: M14; conditions: read-out: Median Growth Inhibitory Concentration (GI50); M14, Melanoma; 48 hours
[22] = system: T-47D; conditions: read-out: Median Growth Inhibitory Concentration (GI50), Breast Cancer, 48 hours
[23] = system: HS 578T; conditions: read-out: Median Growth Inhibitory Concentration (GI50), Breast Cancer, 48 hours
[24] = system: MDA-MB-435; conditions: read-out: Median Growth Inhibitory Concentration (GI50); MDA-MB-435, Breast Cancer; 48 hours
[25] = system: MCF-7; conditions: read-out: Median Growth Inhibitory Concentration (GI50); MCF-7, Breast Cancer; 48 hours
[26] = system: HT29; conditions: read-out: Median Growth Inhibitory Concentration (GI50); HT29, Colon Cancer; 48 hours
[27] = system: CCRF-CEM; conditions: read-out: Median Growth Inhibitory Concentration (GI50), Leukemia, 48 hours
[28] = system: NCI-H522; conditions: read-out: Median Growth Inhibitory Concentration (GI50); NCI-H522, Non-Small Cell Lung Cancer; 48 hours
[29] = system: RPMI-8226; conditions: read-out: Median Growth Inhibitory Concentration (GI50); RPMI-8226, Leukemia; 48 hours
[30] = system: UACC-257; conditions: read-out: Median Growth Inhibitory Concentration (GI50); UACC-257, Melanoma; 48 hours
[31] = system: A498; conditions: read-out: Median Growth Inhibitory Concentration (GI50); A498, Renal Cancer; 48 hours

## N.N.[Cl][Pt][Cl] [Cisplatin, reference compound]
[1]
  GI50: 800 nM
[2]
  GI50: 1300 nM
[3]
  GI50: 600 nM
[4]
  GI50: 1000 nM
[5]
  GI50: 100 nM
[6]
  GI50: 1000 nM
[7]
  GI50: 800 nM
[8]
  GI50: 400 nM
[9]
  GI50: 1300 nM
[10]
  GI50: 500 nM
[11]
  GI50: 300 nM
[12]
  GI50: 1000 nM
[13]
  GI50: 1600 nM
[14]
  GI50: 300 nM
[15]
  GI50: 200 nM
[16]
  GI50: 600 nM
[17]
  GI50: 3200 nM
[18]
  GI50: 100 nM
[19]
  GI50: 1300 nM
[20]
  GI50: 2000 nM
[21]
  GI50: 300 nM
[22]
  GI50: 2000 nM
[23]
  GI50: 1300 nM
[24]
  GI50: 1600 nM
[25]
  GI50: 400 nM
[26]
  GI50: 1300 nM
[27]
  GI50: 200 nM
[28]
  GI50: 800 nM
[29]
  GI50: 500 nM
[30]
  GI50: 1000 nM
[31]
  GI50: 2000 nM
